± gives the expanded uncertainty stated by the source.
Assay: xn = mol fraction of the nth substance listed
Details: 101 kPa, Liquid, x1 = 1; for viscosity: Falling or rolling sphere viscometry; for mass density: Vibrating tube method

CCO [ethanol] + CCCCCO
Details	mass density [kg/m3]	viscosity [mPa·s]
293.15 K	790.13 ± 0.12	1.151 ± 0.012
298.15 K	785.86 ± 0.13	1.069 ± 0.011
303.15 K	781.56 ± 0.13	0.973 ± 0.011
308.15 K	777.23 ± 0.13	0.888 ± 0.01
313.15 K	772.86 ± 0.13	0.813 ± 0.01
318.15 K	768.44 ± 0.13	0.755 ± 0.01
323.15 K	763.97 ± 0.13	0.684 ± 0.009
328.15 K	759.44 ± 0.13	0.63 ± 0.009

Reference: the NIST ThermoML archive (doi:10.1021/je300632p)
